{"source": "patent US20160213003A1", "about": "“APPLICATION OF POLYOXOMETALATE IN PREPARATION OF DISINFECTANT FOR STERILIZING AND REMOVING FORMALDEHYDE” (NINGBO YUCHEN ENVIROCLEAN TECH CO., LTD., priority 2013, published 2016)", "test_system": "Staphylococcus aureus", "test": "Kirby-Bauer diffusion detection of sterilizing capability (inhibition zone diameter)", "format": "cell-based", "settings": "for sterilization effect without oxygen ventilation (diameter, mm): pH 10, no oxygen ventilation", "experimental": "In catalyst screening, Staphylococcus aureus was used as the microorganisms, and a trypsin soybean agar was used as a culture medium. The material powder to be screened was prepared into a homogeneous mixture solution by pure water in a 3% weight/volume ratio (i.e., 3 g powder/100 mL water), then immersed with a neutral precise filtration filter paper of 5 mm diameter for about 10 seconds, then placed into a Kirby-Bauer diffusion detection plate. A Kirby-Bauer diffusion detection plate was placed in a sealed glass cover, and the air was provided into the glass cover at a speed of about 10 liters per minute. The sterilizing capability of the catalyst was measured by the diameter of the zone without bacterial growth around the filter paper. A variety of polyoxometalates were respectively prepared into a water solution with a 3% mass concentration, and pH was controlled to 10. The sterilizing capability was also detected by Kirby-Bauer diffusion detection method in which Staphylococcus aureus was used as the microorganisms, respectively including no oxygen ventilation and oxygen ventilation. When oxygen was ventilated, the condition for oxygen ventilation was the same, the temperature was room temperature (25° C.) and 37° C. […] Potassium polytungstate (K3[PW12O40]) was respectively prepared into water solutions with mass concentration of 0.5%, 1.0%, 2.0%, 3%, 5%, 10%, and 15%, and the pH were controlled to 10. The sterilizing capability was also detected by Kirby-Bauer diffusion detection method in which Staphylococcus aureus was used as the microorganisms, the condition for oxygen ventilation was the same, and the temperature was room temperature (25° C.) and 37° C. […] Potassium polytungstate (K3[PW12O40]) was respectively prepared into water solutions with a concentration of 3% and pH of 6, 7, 8, 8.5, 9, 9.5, 10, 10.5, 11, 11.5, 12. The sterilizing capability was also detected by Kirby-Bauer diffusion detection method in which Staphylococcus aureus was used as the microorganisms, the condition for oxygen ventilation was the same, and the temperature was room temperature (25° C.) and 37° C.", "key": {"[1]": {"settings": "3% water solution, pH 10, oxygen ventilation, 25° C."}, "[2]": {"settings": "3% water solution, pH 10, oxygen ventilation, 37° C."}}}
{"substance": "Na3[PW12O40]", "values": [{"measurement": "sterilization effect without oxygen ventilation (diameter, mm)", "setting": "3% water solution", "value": 3, "unit": "mm"}, {"measurement": "sterilization effect at 25° C. (diameter, mm)", "setting": "[1]", "value": 19, "unit": "mm"}, {"measurement": "sterilization effect at 37° C. (diameter, mm)", "setting": "[2]", "value": 18, "unit": "mm"}]}
{"substance": "Potassium polytungstate [K3[PW12O40]]", "values": [{"measurement": "sterilization effect at 25° C. (diameter, mm)", "setting": "3% water solution, pH 6, oxygen ventilation, 25° C.", "value": 5, "unit": "mm"}, {"measurement": "sterilization effect at 37° C. (diameter, mm)", "setting": "3% water solution, pH 6, oxygen ventilation, 37° C.", "value": 6, "unit": "mm"}, {"measurement": "sterilization effect at 25° C. (diameter, mm)", "setting": "3% water solution, pH 7, oxygen ventilation, 25° C.", "value": 6, "unit": "mm"}, {"measurement": "sterilization effect at 37° C. (diameter, mm)", "setting": "3% water solution, pH 7, oxygen ventilation, 37° C.", "value": 8, "unit": "mm"}, {"measurement": "sterilization effect at 25° C. (diameter, mm)", "setting": "3% water solution, pH 8, oxygen ventilation, 25° C.", "value": 8, "unit": "mm"}, {"measurement": "sterilization effect at 37° C. (diameter, mm)", "setting": "3% water solution, pH 8, oxygen ventilation, 37° C.", "value": 11, "unit": "mm"}, {"measurement": "sterilization effect at 25° C. (diameter, mm)", "setting": "3% water solution, pH 8.5, oxygen ventilation, 25° C.", "value": 14, "unit": "mm"}, {"measurement": "sterilization effect at 37° C. (diameter, mm)", "setting": "3% water solution, pH 8.5, oxygen ventilation, 37° C.", "value": 15, "unit": "mm"}, {"measurement": "sterilization effect at 25° C. (diameter, mm)", "setting": "3% water solution, pH 9, oxygen ventilation, 25° C.", "value": 17, "unit": "mm"}, {"measurement": "sterilization effect at 37° C. (diameter, mm)", "setting": "3% water solution, pH 9, oxygen ventilation, 37° C.", "value": 18, "unit": "mm"}, {"measurement": "sterilization effect at 25° C. (diameter, mm)", "setting": "3% water solution, pH 9.5, oxygen ventilation, 25° C.", "value": 20, "unit": "mm"}, {"measurement": "sterilization effect at 37° C. (diameter, mm)", "setting": "3% water solution, pH 9.5, oxygen ventilation, 37° C.", "value": 19, "unit": "mm"}, {"measurement": "sterilization effect without oxygen ventilation (diameter, mm)", "setting": "3% water solution", "value": 3, "unit": "mm"}, {"measurement": "sterilization effect at 25° C. (diameter, mm)", "setting": "[1]", "value": 19, "unit": "mm"}, {"measurement": "sterilization effect at 25° C. (diameter, mm)", "setting": "3% water solution, pH 10, oxygen ventilation, 25° C. (pH series)", "value": 19, "unit": "mm"}, {"measurement": "sterilization effect at 37° C. (diameter, mm)", "setting": "[2]", "value": 19, "unit": "mm"}, {"measurement": "sterilization effect at 37° C. (diameter, mm)", "setting": "3% water solution, pH 10, oxygen ventilation, 37° C. (pH series)", "value": 19, "unit": "mm"}, {"measurement": "sterilization effect at 25° C. (diameter, mm)", "setting": "3% water solution, pH 10.5, oxygen ventilation, 25° C.", "value": 18, "unit": "mm"}, {"measurement": "sterilization effect at 37° C. (diameter, mm)", "setting": "3% water solution, pH 10.5, oxygen ventilation, 37° C.", "value": 19, "unit": "mm"}, {"measurement": "sterilization effect at 25° C. (diameter, mm)", "setting": "3% water solution, pH 11, oxygen ventilation, 25° C.", "value": 20, "unit": "mm"}, {"measurement": "sterilization effect at 37° C. (diameter, mm)", "setting": "3% water solution, pH 11, oxygen ventilation, 37° C.", "value": 20, "unit": "mm"}, {"measurement": "sterilization effect at 25° C. (diameter, mm)", "setting": "3% water solution, pH 11.5, oxygen ventilation, 25° C.", "value": 20, "unit": "mm"}, {"measurement": "sterilization effect at 37° C. (diameter, mm)", "setting": "3% water solution, pH 11.5, oxygen ventilation, 37° C.", "value": 20, "unit": "mm"}, {"measurement": "sterilization effect at 25° C. (diameter, mm)", "setting": "3% water solution, pH 12, oxygen ventilation, 25° C.", "value": 20, "unit": "mm"}, {"measurement": "sterilization effect at 37° C. (diameter, mm)", "setting": "3% water solution, pH 12, oxygen ventilation, 37° C.", "value": 20, "unit": "mm"}, {"measurement": "sterilization effect at 25° C. (diameter, mm)", "setting": "concentration 0.5%, pH 10, oxygen ventilation, 25° C.", "value": 8, "unit": "mm"}, {"measurement": "sterilization effect at 37° C. (diameter, mm)", "setting": "concentration 0.5%, pH 10, oxygen ventilation, 37° C.", "value": 9, "unit": "mm"}, {"measurement": "sterilization effect at 25° C. (diameter, mm)", "setting": "concentration 1.0%, pH 10, oxygen ventilation, 25° C.", "value": 11, "unit": "mm"}, {"measurement": "sterilization effect at 37° C. (diameter, mm)", "setting": "concentration 1.0%, pH 10, oxygen ventilation, 37° C.", "value": 10, "unit": "mm"}, {"measurement": "sterilization effect at 25° C. (diameter, mm)", "setting": "concentration 2.0%, pH 10, oxygen ventilation, 25° C.", "value": 14, "unit": "mm"}, {"measurement": "sterilization effect at 37° C. (diameter, mm)", "setting": "concentration 2.0%, pH 10, oxygen ventilation, 37° C.", "value": 16, "unit": "mm"}, {"measurement": "sterilization effect at 25° C. (diameter, mm)", "setting": "concentration 3.0%, pH 10, oxygen ventilation, 25° C.", "value": 16, "unit": "mm"}, {"measurement": "sterilization effect at 37° C. (diameter, mm)", "setting": "concentration 3.0%, pH 10, oxygen ventilation, 37° C.", "value": 18, "unit": "mm"}, {"measurement": "sterilization effect at 25° C. (diameter, mm)", "setting": "concentration 5%, pH 10, oxygen ventilation, 25° C.", "value": 18, "unit": "mm"}, {"measurement": "sterilization effect at 37° C. (diameter, mm)", "setting": "concentration 5%, pH 10, oxygen ventilation, 37° C.", "value": 19, "unit": "mm"}, {"measurement": "sterilization effect at 25° C. (diameter, mm)", "setting": "concentration 10%, pH 10, oxygen ventilation, 25° C.", "value": 20, "unit": "mm"}, {"measurement": "sterilization effect at 37° C. (diameter, mm)", "setting": "concentration 10%, pH 10, oxygen ventilation, 37° C.", "value": 20, "unit": "mm"}, {"measurement": "sterilization effect at 25° C. (diameter, mm)", "setting": "concentration 15%, pH 10, oxygen ventilation, 25° C.", "value": 19, "unit": "mm"}, {"measurement": "sterilization effect at 37° C. (diameter, mm)", "setting": "concentration 15%, pH 10, oxygen ventilation, 37° C.", "value": 18, "unit": "mm"}]}
